Where “and” joins values, the source holds several entries; their conditions need not be identical. Identical values can stand only once.
Test system: serum levels of 58 analytes
Assay: Serum biomarker analysis, quantitative immunoassay multi-analyte profiling (Rules-Based Medicine RodentMAP v2.9), AA#80
Format: in vivo, mouse
Conditions: serum
Experimental: In AA#80, serum samples were collected on Day 27, Day 34, Day 41 and Day 55 via the submandibular vein. Approximately 200 μL of blood per mouse was collected in Microtainer® serum separator tubes. Serum was removed following centrifugation and stored at <−65° C. until analysis.
Selected serum samples were sent to Rules-Based Medicine (Austin, Tex.) for quantitative immunoassay multi-analyte profiling of serum samples, with the goal of identifying biomarkers that could be used to monitor disease progression and response to B7-H4-Ig treatment. Day 27, Day 34, and Day 41 sera from the three representative mice in the B7-H4-Ig group (tag #3332, 3334, and 3338) and three representative mice in the Synagis® group (tag #3324, 3329, and 3330) were analyzed for levels of 58 analytes using the RodentMAP v2.9 Testing Service.
Data from the Rules-Based Medicine analysis was analyzed using Microsoft Excel and GraphPad Prism software. T-tests were performed to compare the levels of each analyte in the B7-H4-Ig versus Synagis® treated samples. No correction was made for multiple comparisons. Additionally, correlation coefficients were calculated for each analyte versus disease score.

Q: Which results are given for “Human B7-H4-Ig: human B7-H4 extracellular domain fused to hinge, CH2 and CH3 regions of human immunoglobulin Cγ1 chain; representative SEQ ID NOs:114-137”?
A: SAP (Serum Amyloid P): Human LgG1 control vs. human B7-H4 Ig, ALL (p of difference between groups, ALL): 0.26; SAP (Serum Amyloid P): Human LgG1 control vs. human B7-H4 Ig, D 27 (p of difference between groups, D 27): 0.32; SAP (Serum Amyloid P): Human LgG1 control vs. human B7-H4 Ig, D 34 (p of difference between groups, D 34): 0.50; SAP (Serum Amyloid P): Human LgG1 control vs. human B7-H4 Ig, D 41 (p of difference between groups, D 41): 0.13; M-CSF (Macrophage-Colony Stimulating Factor) (Day 27, LDD 0.01795): 6.88 ng/mL and 6.51 ng/mL and 6.21 ng/mL; MIP-1gamma (Macrophage Inflammatory Protein-1gamma) (Day 27, LDD 0.0736): 43.2 ng/mL and 38.6 ng/mL and 32.1 ng/mL; TNF-alpha (Tumor Necrosis Factor-alpha) (Day 27, LDD 0.137): <low>; TEMP-1 (Tissue Inhibitor of Metalicproteinase Type-1) (Day 27, LDD 0.18): 1.38 ng/mL and 1.31 ng/mL and 1.14 ng/mL; IL-5 (Interleukin-5) (Day 27, LDD 0.194): 0.474 ng/mL and 0.333 ng/mL; MIP-1alpha (Macrophage Inflammatory Protein-1alpha) (Day 27, LDD 0.2255): 2.83 ng/mL and 3.13 ng/mL and 3.03 ng/mL; MIP-3beta (Macrophage Inflammatory Protein-3beta) (Day 27, LDD 0.465): 2.6 ng/mL and 2.79 ng/mL and 2.52 ng/mL; Tissue Factor (Day 27, LDD 0.5175): 8.32 ng/mL and 11.7 ng/mL and 10 ng/mL; MPO (Myeloperoxidase) (Day 27, LDD 0.95): 245 ng/mL and 227 ng/mL and 191 ng/mL; SGOT (Serum Glutamic-Oxaloacetic Transaminase) (Day 27, LDD 1.86): 74.3 µg/mL and 84.6 µg/mL and 94.3 µg/mL; TPO (Thromboproletin) (Day 27, LDD 2.66): 38 ng/mL and 39.8 ng/mL and 34.2 ng/mL; SAP (Setrum Amtyloid P) (Day 27, LDD 5.4): 41 µg/mL and 39.5 µg/mL and 30.7 µg/mL; MIP-2 (Macrophage Inflammatory Protein-2) (Day 27, LDD 7.174): 20.9 pg/mL and 16.3 pg/mL and 21.6 pg/mL; MMP-9 (Matrix Metalloproteinase-9) (Day 27, LDD 10): 266 ng/mL and 140 ng/mL; MCP-1 (Monocyte Chemoattractant Protein-1) (Day 27, LDD 16.924): 72.6 pg/mL and 55.4 pg/mL and 66.9 pg/mL; VCAM-1 (Vescular Cell Adhesion Molecule-1) (Day 27, LDD 19): 2250 ng/mL and 2120 ng/mL and 2130 ng/mL; MDC (Macrophage-Derived Chemokine) (Day 27, LDD 21.85): 1250 pg/mL and 1110 pg/mL and 1040 pg/mL; Myoglobin (Day 27, LDD 24): 17.5 ng/mL and 12.1 ng/mL and 9.69 ng/mL; MCP-3 (Monocyte Chemoattractant Protein-3) (Day 27, LDD 31.36): 160 pg/mL and 120 pg/mL and 129 pg/mL; VEGF (Vescular Endotheial Cell Growth Factor) (Day 27, LDD 38.2): 150 pg/mL and 128 pg/mL and 160 pg/mL; IP-10 (Inducible Protein-10) (Day 27, LDD 40.28): 57.3 pg/mL and 55.5 pg/mL and 38.6 pg/mL; LIF (Leukemia Infabitory Factor) (Day 27, LDD 43.6): 1540 pg/mL and 1500 pg/mL; MCP-5 (Monocyte Chemoattractant Protein-5) (Day 27, LDD 46.38): 41.4 pg/mL and 33.8 pg/mL and 29.4 pg/mL; SCF (Stem Cell Factor) (Day 27, LDD 75.17): 204 pg/mL and 194 pg/mL and 275 pg/mL; MIP-1beta (Macrophage Inflammatory Protein-1beta) (Day 27, LDD 77.65): 110 pg/mL and 115 pg/mL and 173 pg/mL; Lymphotactin (Day 27, LDD 85.48): 164 pg/mL and 169 pg/mL and 194 pg/mL; VWF (Von Willebrand Factor) (Day 27, LDD 98.6): 143 ng/mL and 123 ng/mL and 107 ng/mL; M-CSF (Macrophage-Colony Stimulating Factor) (Day 34, LDD 0.01795): 5.79 ng/mL and 6.35 ng/mL and 6.51 ng/mL; MIP-1gamma (Macrophage Inflammatory Protein-1gamma) (Day 34, LDD 0.0736): 50.4 ng/mL and 30.1 ng/mL and 41 ng/mL; TNF-alpha (Tumor Necrosis Factor-alpha) (Day 34, LDD 0.137): <low>; IL-5 (Interleukin-5) (Day 34, LDD 0.194): 0.474 ng/mL and 0.264 ng/mL and 0.403 ng/mL; MIP-1alpha (Macrophage Inflammatory Protein-1alpha) (Day 34, LDD 0.2255): 3.03 ng/mL and 2.88 ng/mL and 3.08 ng/mL; MIP-3beta (Macrophage Inflammatory Protein-3beta) (Day 34, LDD 0.465): 2.79 ng/mL and 2.49 ng/mL and 3.11 ng/mL; Tissue Factor (Day 34, LDD 0.5175): 10.8 ng/mL and 10.4 ng/mL and 13.3 ng/mL; MPO (Myeloperoxidase) (Day 34, LDD 0.95): 247 ng/mL and 254 ng/mL and 242 ng/mL; TPO (Thromboproletin) (Day 34, LDD 2.66): 43.4 ng/mL and 30.4 ng/mL and 36.1 ng/mL; SAP (Setrum Amtyloid P) (Day 34, LDD 5.4): 51.8 µg/mL and 31 µg/mL and 42.6 µg/mL; MIP-2 (Macrophage Inflammatory Protein-2) (Day 34, LDD 7.174): 36.8 pg/mL and 26.6 pg/mL and 22.2 pg/mL; MMP-9 (Matrix Metalloproteinase-9) (Day 34, LDD 10): 503 ng/mL and 334 ng/mL and 255 ng/mL; MCP-1 (Monocyte Chemoattractant Protein-1) (Day 34, LDD 16.924): 84.6 pg/mL and 56 pg/mL and 101 pg/mL; VCAM-1 (Vescular Cell Adhesion Molecule-1) (Day 34, LDD 19): 1860 ng/mL and 2190 ng/mL and 2470 ng/mL; MDC (Macrophage-Derived Chemokine) (Day 34, LDD 21.85): 1390 pg/mL and 1120 pg/mL and 1360 pg/mL; VEGF (Vescular Endotheial Cell Growth Factor) (Day 34, LDD 38.2): 160 pg/mL and 141 pg/mL and 155 pg/mL; IP-10 (Inducible Protein-10) (Day 34, LDD 40.28): 81 pg/mL and 59 pg/mL and 54.2 pg/mL; LIF (Leukemia Infabitory Factor) (Day 34, LDD 43.6): 1430 pg/mL and 1500 pg/mL and 1480 pg/mL; MCP-5 (Monocyte Chemoattractant Protein-5) (Day 34, LDD 46.38): 57.8 pg/mL and 29.2 pg/mL and 46.7 pg/mL; SCF (Stem Cell Factor) (Day 34, LDD 75.17): 182 pg/mL and 220 pg/mL and 217 pg/mL; Lymphotactin (Day 34, LDD 85.48): 196 pg/mL and 162 pg/mL and 197 pg/mL; VWF (Von Willebrand Factor) (Day 34, LDD 98.6): 101 ng/mL and 137 ng/mL and 135 ng/mL; M-CSF (Macrophage-Colony Stimulating Factor) (Day 41, LDD 0.01795): 5.02 ng/mL and 5.67 ng/mL and 6.07 ng/mL; MIP-1gamma (Macrophage Inflammatory Protein-1gamma) (Day 41, LDD 0.0736): 42.8 ng/mL and 32.7 ng/mL and 42.5 ng/mL; OSM (Oncostatin M) (Day 41, LDD 0.13): <low>; TNF-alpha (Tumor Necrosis Factor-alpha) (Day 41, LDD 0.137): <low>; IL-5 (Interleukin-5) (Day 41, LDD 0.194): 0.474 ng/mL and 0.254 ng/mL and 0.264 ng/mL; MIP-1alpha (Macrophage Inflammatory Protein-1alpha) (Day 41, LDD 0.2255): 3.13 ng/mL and 2.93 ng/mL and 3.03 ng/mL; IL-7 (Interleukin-7) (Day 41, LDD 0.309): <low>; MIP-3beta (Macrophage Inflammatory Protein-3beta) (Day 41, LDD 0.465): 3.05 ng/mL and 3.03 ng/mL and 2.87 ng/mL; Tissue Factor (Day 41, LDD 0.5175): 10.8 ng/mL and 9.17 ng/mL and 9.37 ng/mL; MPO (Myeloperoxidase) (Day 41, LDD 0.95): 208 ng/mL and 228 ng/mL and 285 ng/mL; SGOT (Serum Glutamic-Oxaloacetic Transaminase) (Day 41, LDD 1.86): 85.8 µg/mL and 93.9 µg/mL and 71.1 µg/mL; TPO (Thromboproletin) (Day 41, LDD 2.66): 38 ng/mL and 32.4 ng/mL and 36.1 ng/mL; SAP (Setrum Amtyloid P) (Day 41, LDD 5.4): 47.9 µg/mL and 38.6 µg/mL and 46 µg/mL; MIP-2 (Macrophage Inflammatory Protein-2) (Day 41, LDD 7.174): 25.9 pg/mL and 23.4 pg/mL and 19.7 pg/mL; MCP-1 (Monocyte Chemoattractant Protein-1) (Day 41, LDD 16.924): 71.9 pg/mL and 53.1 pg/mL and 74.8 pg/mL; VCAM-1 (Vescular Cell Adhesion Molecule-1) (Day 41, LDD 19): 1840 ng/mL and 1940 ng/mL and 2390 ng/mL; MDC (Macrophage-Derived Chemokine) (Day 41, LDD 21.85): 1350 pg/mL and 1110 pg/mL and 1290 pg/mL; MCP-3 (Monocyte Chemoattractant Protein-3) (Day 41, LDD 31.36): 197 pg/mL and 115 pg/mL and 132 pg/mL; VEGF (Vescular Endotheial Cell Growth Factor) (Day 41, LDD 38.2): 125 pg/mL and 120 pg/mL and 155 pg/mL; IP-10 (Inducible Protein-10) (Day 41, LDD 40.28): 69.3 pg/mL and 47.6 pg/mL and 59 pg/mL; LIF (Leukemia Infabitory Factor) (Day 41, LDD 43.6): 1540 pg/mL and 1980 pg/mL; MCP-5 (Monocyte Chemoattractant Protein-5) (Day 41, LDD 46.38): 48.8 pg/mL and 35.7 pg/mL and 37.9 pg/mL; SCF (Stem Cell Factor) (Day 41, LDD 75.17): 175 pg/mL and 198 pg/mL and 210 pg/mL; Lymphotactin (Day 41, LDD 85.48): 187 pg/mL and 148 pg/mL; VWF (Von Willebrand Factor) (Day 41, LDD 98.6): 113 ng/mL and 111 ng/mL and 133 ng/mL; GCP-2 (Granulocyte Chemotactic Potein-2) (Day 27, LDD 0.0245, individual mice): 18 ng/mL and 18.5 ng/mL and 16.6 ng/mL; IL-17-(Interleukin-17) (Day 27, LDD 0.152, individual mice): <low> (2×) and 0.00451 ng/ml; GST-alpha (Glutathione S-Transferase alpha) (Day 27, LDD 0.42, individual mice): <low>; IL-1beta (Interleukin-1beta) (Day 27, LDD 0.447, individual mice): 4.36 ng/ml (2×) and 1.98 ng/ml; IL-12p70-(Interleukin-12p70) (Day 27, LDD 0.5712, individual mice): 0.0532 ng/ml (2×) and <low>; FGF-basic (Fibroblast Growth Factor-basic) (Day 27, LDD 0.577, individual mice): 18.8 ng/mL and 17.8 ng/mL and 16.8 ng/mL; Haptoglobin (Day 27, LDD 0.64, individual mice): 161 µg/mL and 204 µg/mL and 123 µg/mL

— patent US9011853B2, “B7-H4 fusion proteins and methods of use thereof” (Amplimmune, Inc., priority 2009, dated 2015)
